The values that follow come from patent US10793543B2, “Selective C-KIT kinase inhibitor” (PRECEDO PHARMACEUTICALS CO., LTD, priority 2016, dated 2020).

The structures appear in SMILES notation.

Series [1] concerns Tel-cKit-BaF3 cells (KIT WT). Put plainly: Cell proliferation, CCK-8, Tel-cKit-BaF3. To be noted: Mus musculus, 72 hours. The class given is cell-based. The text has this: (§1) In addition, in the present example, further uses: mouse P210/BaF3 (stably expressing P210 Bcr-Abl mutant gene), mouse Tel-ABL-BaF3 (stably expressing wild-type ABL kinase), mouse Tel-cKit-BaF3 (stably expressing C-KITwild-type kinase), mouse Tel-cKit/V559D-BaF3 (stably expressing C-KIT V559D mutant kinase), mouse Tel-cKit/V559D/V654A-BaF3 (stably expressing C-KIT V559D/V654A mutant kinase), mouse Tel-cKit/N822K-BaF3 (stably expressing C-KIT N822K mutant kinase), mouse Tel-cKit/V654A-BaF3 (stably expressing C-KIT V654A mutant kinase), mouse Tel-cKit/L567P-BaF3 (stably expressing C-KIT L567P mutant kinase), mouse Tel-cKit/T670I-BaF3 (stably expressing C-KIT T670I mutant kinase), mouse Tel-PDGFRα-BaF3 (stably expressing PDGFRα kinase), mouse Tel-PDGFRβ-BaF3 (stably expressing PDGFRβ kinase), mouse Tel-VEGFR2-BaF3 (stably expressing VEGFR2 kinase), mouse Tel-RET-BaF3 (stably expressing RET kinase). The above cell lines were all constructed by our laboratory according to the following method: the kinase region sequences of human P210 Bcr-Abl, ABL, C-KIT, C-KIT V559D, C-KIT V559D/V654A, C-KIT N822K, C-KIT V654A, C-KIT L567P, C-KIT T670I, PDGFRα, PDGFRβ, VEGFR2, RET were amplified respectively by PCR, inserted respectively into MSCV-Puro vectors harboring N-terminal TEL fragment and/or NPM fragment and/or TPR fragment (Clontech), then the vectors were stably transfected into mouse BaF3 cells by retrovirus methods and growth factor IL-3 was removed, eventually obtaining cell lines that are transferred protein (P210 Bcr-Abl, ABL, C-KIT, C-KIT V559D, C-KIT V559D/V654A, C-KIT N822K, C-KIT V654A, C-KIT L567P, C-KIT T670I, PDGFRα, PDGFRβ, VEGFR2, RET)-dependent.
(§2) The cells were incubated for 72 hours, and then the number of viable cells was quantified with a microplate reader by using CCK-8 Cell Viability Assay Kit (purchased from Bestbio Company, Shanghai, China) (CCK-8 can be reduced by dehydrogenase in living cells to a highly water-soluble yellow formazan product, and the amount of formazan produced is proportional to the number of living cells).

In a further series the test system is GIST-T1 cells. Put plainly: Cancer cell proliferation, CCK-8, GIST-T1. It is filed as cell-based. Particulars: Homo sapiens, GISTT1, GIST-T1, KIT WT, 72 hours.
Source text: (§3) In the present example, the following cells were used: chronic myelogenous leukemia cells K562 (expressing P210 Bcr-Abl mutant gene), human megakaryocytic leukemia cells MEG-01 (expressing P210 Bcr-Abl mutant gene), human peripheral blood basophilic leukemia cells Ku812 (expressing Bcr-Abl mutant gene) (all above cells purchased from ATCC, USA), human gastrointestinal stromal tumor cell lines GIST-T1 cells (expressing wild-type C-KIT gene) (purchased from Cosmo Bio Co., Ltd., Japan), human gastrointestinal stromal tumor cell lines GIST-882 cells (expressing wild-type C-KIT gene) (presented by the Professor Gray Lab, Dana-Farber Cancer Institute, Harvard University, USA), mouse pro-B cells BaF3 (purchased from ATCC, USA).
as §2

Another series concerns GIST-882 cells. In words: Cancer cell proliferation, CCK-8, GIST-882. It is filed as cell-based. To be noted: Homo sapiens, GIST882, GIST-882, KIT WT, 72 hours.
Source text: as §3, §2

Series [2] deals with Tel-cKit/V559D-BaF3 cells (KIT V559D). In words: Cell proliferation, CCK-8, Tel-cKit/V559D-BaF3. The class given is cell-based. Particulars: Mus musculus, 72 hours.
Source text: as §1, §2

Series [3] relates to Tel-cKit/V559D/V654A-BaF3 cells (KIT V559D/V654A). In words: Cell proliferation, CCK-8, Tel-cKit/V559D/V654A-BaF3. It is filed as cell-based. To be noted: Mus musculus, 72 hours.
Source text: as §1, §2

In series [4] the test system is Tel-cKit/N822K-BaF3 cells (KIT N822K). In words: Cell proliferation, CCK-8, Tel-cKit/N822K-BaF3. It is filed as cell-based. To be noted: Mus musculus, 72 hours.
Source text: as §1, §2

Series [5] relates to Tel-cKit/V654A-BaF3 cells (KIT V654A). Put plainly: Cell proliferation, CCK-8, Tel-cKit/V654A-BaF3. It is filed as cell-based. Particulars: Mus musculus, 72 hours.
Source text: as §1, §2

For series [6], the system named is Tel-cKit/L576P-BaF3 cells (KIT L576P). Put plainly: Cell proliferation, CCK-8, Tel-cKit/L576P-BaF3. Particulars: Mus musculus, 72 hours. It is filed as cell-based.
Source text: as §1, §2

Series [7] has as its system Tel-cKit/T670I-BaF3 cells (KIT T670I). In words: Cell proliferation, CCK-8, Tel-cKit/T670I-BaF3. It is filed as cell-based. To be noted: Mus musculus, 72 hours.
Source text: as §1, §2

The subject of series [8] is Tel-RET-BaF3 cells (RET WT). Put plainly: Cell proliferation, CCK-8, Tel-RET-BaF3. It is filed as cell-based. To be noted: Mus musculus, 72 hours.
Source text: as §1, §2

Series [9] has as its system Tel-PDGFRα-BaF3 cells (PDGFRα). In words: Cell proliferation, CCK-8, Tel-PDGFRα-BaF3. It is filed as cell-based. Particulars: Mus musculus, 72 hours.
Source text: as §1, §2

Series [10] has as its system Tel-PDGFRβ-BaF3 cells (PDGFRβ). In words: Cell proliferation, CCK-8, Tel-PDGFRβ-BaF3. It is filed as cell-based. Particulars: Mus musculus, 72 hours.
Source text: as §1, §2

Series [11] has as its system Tel-VEGFR2-BaF3 cells (VEGFR2). In words: Cell proliferation, CCK-8, Tel-VEGFR2-BaF3. To be noted: Mus musculus, Tel-VEGFR2-BaF3, VEGFR2, 72 hours. It is filed as cell-based.
Source text: as §1, §2

The test system of another series is BaF3 cells. In words: Cell proliferation, CCK-8, parental BaF3. It is filed as cell-based. Particulars: Mus musculus, 72 hours.
Source text: as §3, §2

In series [12] the test system is phosphorylation of Bcr-Abl kinase and pathway proteins in K562 cells. In words: Effects on cell signaling pathways (phosphorylation), K562. It is filed as cell-based, human. To be noted: K562, 0.1 μM, 2 hours.
Series [13] can be described thus: Acute toxicity assay in mice, single oral gavage. The class given is in vivo. To be noted: for Number of death (number of death/number of animals in each group): female mice, 7 days observation. How it is done:
1. 4-6 week-old Bal b/c female mice were purchased from Shanghai SLAC Experimental Animal Co., Ltd., and were raised in a SPF-level laboratory. Drinking water and padding were both subjected to aseptic processing via high-pressure disinfection, and all operations of the mice were conducted under aseptic conditions; 10 healthy mice were selected, and were balanced and randomly divided into 5 groups according to their weights.
2. Specific Information for Administration
Route of administration: oral gavage
Observation period: 7 days.
3. Observation Indicators
Weighing frequency: upon grouping, the day of administration (D0) to the seventh day after administration (D7). Based on the mouse weight on D0 (starting value of 100%), the graph of the relative body weight over time was plotted.
3.2. Clinical Symptoms Observation
Strict observation was carried out within 4 hours after administration, and then observation was carried out twice a day for a total of 7 days. Observation was carried out and abnormal symptoms or phenomena in each of animals were recorded.
The number of animals died in each of dosage groups during the observation period.
Comprehensive determination was performed based on animal mortality, clinical symptoms and body weights.

Series [14] deals with cells expressing wild-type C-KIT kinase. Put plainly: Cell proliferation, C-KIT cells. It is filed as cell-based. To be noted: cells expressing C-KIT kinase, summary of Table 2.
Source text: as §3, §1, §2

The subject of series [15] is K562 cells (P210 Bcr-Abl). Put plainly: Cancer cell proliferation, CCK-8, K562. The class given is cell-based. Particulars: Homo sapiens, K562, 72 h.
Source text: as §3, §2

Series [16] has as its system MEG-01 cells (P210 Bcr-Abl). In words: Cancer cell proliferation, CCK-8, MEG-01. The class given is cell-based. Particulars: Homo sapiens, MEG-01, 72 h.
Source text: as §3, §2

For another series, the system named is Ku812 cells (Bcr-Abl). Put plainly: Cancer cell proliferation, CCK-8, Ku812. It is filed as cell-based. To be noted: Homo sapiens, KU812, 72 h.
Source text: as §3, §2

The test system of series [17] is P210/BaF3 cells (P210 Bcr-Abl). Put plainly: Cell proliferation, CCK-8, P210/BaF3. It is filed as cell-based. Particulars: Mus musculus, BaF3, 72 h.
Source text: (§4) In addition, in the present example, further uses: mouse P210/BaF3 (stably expressing P210 Bcr-Abl mutant gene), mouse Tel-ABL-BaF3 (stably expressing wild-type ABL kinase), mouse Tel-cKit-BaF3 (stably expressing C-KITwild-type kinase), mouse Tel-cKit/V559D-BaF3 (stably expressing C-KIT V559D mutant kinase), mouse Tel-cKit/V559D/V654A-BaF3 (stably expressing C-KIT V559D/V654A mutant kinase), mouse Tel-cKit/N822K-BaF3 (stably expressing C-KIT N822K mutant kinase), mouse Tel-cKit/V654A-BaF3 (stably expressing C-KIT V654A mutant kinase), mouse Tel-cKit/L567P-BaF3 (stably expressing C-KIT L567P mutant kinase), mouse Tel-cKit/T670I-BaF3 (stably expressing C-KIT T670I mutant kinase), mouse Tel-PDGFRα-BaF3 (stably expressing PDGFRα kinase), mouse Tel-PDGFRβ-BaF3 (stably expressing PDGFRβ kinase), mouse Tel-VEGFR2-BaF3 (stably expressing VEGFR2 kinase), mouse Tel-RET-BaF3 (stably expressing RET kinase). […]
as §2

Series [18] has as its system Tel-ABL-BaF3 cells (ABL WT). Put plainly: Cell proliferation, CCK-8, Tel-ABL-BaF3. The class given is cell-based. To be noted: Mus musculus, 72 h.
Source text: as §4, §2

On to `Cc1ccc(NC(=O)c2ccc(CN3CCN(C)CC3)c(C(F)(F)F)c2)cc1OC1CCN(C(=O)c2cccnc2)CC1` [Compound A], for which the GI50 (as a rule, the concentration at which growth is held to half of that of the control) stood at 147 nM in series [1]; 14 nM in the series with GIST-T1 cells; 67 nM in the series with GIST-882 cells; 134 nM in series [2]; 2450 nM in [3]; 378 nM in series [4]. In addition, the GI50 in series [5] was determined as 2260 nM; in [6], 321 nM; in series [7], 1010 nM; in series [8], 390 nM; in series [9], 95 nM; in series [10], 52 nM. Moreover, the GI50 in series [11] is 17 nM; in the series with BaF3 cells, more than 10000 nM. The “proteins in Bcr-Abl signaling pathways upstream and downstream” value in series [12] is on record as “very strong inhibitory effects”. Besides, the “Number of death (number of death/number of animals in each group)” value in [13] (250 mg/kg single oral gavage) is “♀: 0/2”; in [13] (500 mg/kg single oral gavage), “♀: 0/2”; in [13] (1000 mg/kg single oral gavage) it was “♀: 1/2”; in [13] (2000 mg/kg single oral gavage), “♀: 2/2”. Also, the clinical symptoms entry was “started to be quiet and lie down around 40 minutes” in series [13] (1000 mg/kg single oral gavage); “gait of mice was unstable” in series [13] (2000 mg/kg single oral gavage). Also, the “mice died” value is 1 in [13] (1000 mg/kg single oral gavage) and 2 in series [13] (2000 mg/kg single oral gavage).

As to `Cc1ccc(NC(=O)c2ccc(CN3CCN(C)CC3)c(C(F)(F)F)c2)cc1OC1CCN(C(=O)c2ccncc2)CC1` [B], the GI50 in [1] worked out at 170 nM; in the series on GIST-T1 cells it was 27 nM; in series [2], 20 nM; in [4] it was 130 nM; in series [5] it was 585 nM; in [8], 300 nM. For the same compound, the GI50 in series [9] is 15 nM; in series [10] it was 40 nM; in series [11], 7 nM; in the series with BaF3 cells it was more than 10000 nM; in series [14], less than 500 nM.

In the case of `Cc1cn(-c2cc(NC(=O)c3ccc(C)c(Nc4nccc(-c5cccnc5)n4)c3)cc(C(F)(F)F)c2)cn1` [nilotinib], the GI50 in [15] came out at 3 nM; in [16], 0.4 nM; in the series on Ku812 cells (Bcr-Abl), 1.2 nM; in series [17] it was 12.5 nM; in series [18], 26 nM; in [1], 47 nM. Also, the GI50 in the series on GIST-T1 cells was determined as 6 nM; in the series with GIST-882 cells, 17 nM; in [2], 22 nM; in series [3], 648 nM; in [4], 166 nM; in series [5] it was 365 nM. In addition, the concentration for 50% growth inhibition (GI50) was determined as 81 nM in [6]; 2860 nM in [7]; 2660 nM in series [8]; 32 nM in series [9]; 32 nM in [10]; 5380 nM in series [11]. Moreover, the GI50 in the series on BaF3 cells was more than 10000 nM; in series [14], less than 500 nM.
